{"source": "paper PMC11279797", "about": "“Shifting Mycobacterial Serine Hydrolase Activity Visualized Using Multi-Layer In-Gel Activity Assays” (Molecules, 2024)", "target": "T1, LipN (Mycolicibacterium smegmatis, UniProt I7G6G5)", "T1 sequence (I7G6G5 1-378)": "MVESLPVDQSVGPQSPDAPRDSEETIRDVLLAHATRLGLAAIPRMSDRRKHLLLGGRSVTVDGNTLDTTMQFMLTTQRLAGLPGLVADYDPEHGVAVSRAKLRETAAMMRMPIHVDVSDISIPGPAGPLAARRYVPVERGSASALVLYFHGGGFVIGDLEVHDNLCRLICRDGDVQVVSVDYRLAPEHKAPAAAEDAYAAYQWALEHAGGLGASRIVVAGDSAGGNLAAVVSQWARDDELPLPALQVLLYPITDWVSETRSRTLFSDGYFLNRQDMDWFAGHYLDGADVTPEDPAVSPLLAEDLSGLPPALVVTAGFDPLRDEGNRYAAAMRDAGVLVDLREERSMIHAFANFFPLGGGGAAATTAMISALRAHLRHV", "test": "fluorogenic ester hydrolysis, initial rates, Michaelis-Menten fit", "assay_type": "biochemical", "conditions": "PBS pH 7.4, 0.1 mg/mL acetylated BSA, 25 C", "data": [{"smiles": "O=C(OCOc1ccc2c(c1)Oc1cc(OCOC(=O)c3cnco3)ccc1C21OC(=O)c2ccccc21)c1cnco1", "note": "[compound 7, substrate 7]", "values": [{"measurement": "KM", "value": "Msmeg LipN has high enzymatic activity against the oxazole ester substrate"}]}]}
